# Entries after “also recorded” stand apart in the source; their conditions may differ.
# Assays:
# [1] = cited from earlier work
# [2] = Pharmacokinetics of memantine with sodium hydroxide, menthol and NH4Cl in male beagle dogs (Example 3); format: in vivo, beagle dog; details: MMT 0.4 mg/kg; for Cmax/Dose: Route Oral; for AUC(0-inf) / AUC(0-t) / Cmax / Tmax / half-life: male, beagle, dog, plasma, po, 0.4 mg/kg
# [3] = tested on: Caco-2 cells; experiment: Memantine in vitro intestinal permeability (Caco-2 cells); format: in vitro ADME; details: pH 5.0 to 10.5
# [4] = tested on: NMDA receptors; details: cited from earlier work
# [5] = Sedation and side effects observed in the cough studies
# [6] = tested on: histamine neuron activity; details: cited from earlier work
# [7] = tested on: bradykinin induced cough; experiment: Bradykinin induced cough in conscious guinea pigs; format: in vivo, guinea pig
# Protocol: (§1) Using a similar chamber and nebulizer system, animals were treated first with aerosolized peptidase inhibitors (captopril 0.1 μM and thiorphan 0.1 μM, 5 minutes nebulization) to reduce bradykinin degradation and enhance tussive responses evoked by bradykinin (unpublished observations). Animals were then exposed to increasing concentrations of aerosolized bradykinin (0.1-3 mg/mL), again for 5 minute periods. Coughs are counted during this and the subsequent 5 minutes. Pressure changes within the chamber are used to monitor respiratory rate (Biopac Systems Inc, Goleta, Calif.).
# [8] = Respiratory parameters during cough challenge; format: in vivo, guinea pig; details: 10 mg/kg memantine, p=0.012
# Protocol: as §1
# [9] = tested on: sigma receptor; details: cited from earlier work
# [10] = 3.3 mg/ml sodium hydroxide + 5 mg/ml menthol
# [11] = 3.3 mg/ml sodium hydroxide + 5 mg/ml menthol + 20 mg/kg NH4Cl
# [12] = 3.3 mg/ml sodium hydroxide + 5 mg/ml menthol + 30 mg/kg NH4Cl
smiles,measurement,setting,value
"CC12CC3CC(C)(C1)CC(N)(C3)C2 [Memantine, 3,5-dimethyltricyclo[3.3.1.1^3,7]decan-1-amine]",plasma memantine concentrations at steady state,[1]; conventional memantine dosage forms,70 to 150 ng/mL
same,Total renal clearance,[1]; healthy volunteers,approximately 170 mL/min/1.70 m^2
same,bound to plasma proteins,[1]; in vivo,about 45%
same,mean volume of distribution,[1]; in vivo,about 10 L/kg
same,bioavailability,"[1]; oral, conventional memantine",> 100%
same,Cmax/Dose,[2]; [10],18.16
same,Cmax/Dose,[2]; [11],26.03
same,Cmax/Dose,[2]; [12],9.18
same,Cmax/Dose,[2]; Control,7.91
same,AUC(0-inf),[2]; [10],126 ng·h/mL
same,AUC(0-t),[2]; [10],113 ng·h/mL
same,Cmax,[2]; [10],77 ng/mL
same,Tmax,[2]; [10],0.2 h
same,half-life,[2]; [10],5.05 h
same,AUC(0-inf),[2]; [11],143 ng·h/mL
same,AUC(0-t),[2]; [11],134 ng·h/mL
same,Cmax,[2]; [11],126 ng/mL
same,Tmax,[2]; [11],0.15 h
same,half-life,[2]; [11],4.6 h
same,AUC(0-inf),[2]; [12],125 ng·h/mL
same,AUC(0-t),[2]; [12],103 ng·h/mL
same,Cmax,[2]; [12],43 ng/mL
same,Tmax,[2]; [12],0.25 h
same,half-life,[2]; [12],4.33 h
same,AUC(0-inf),[2]; Control,132 ng·h/mL
same,AUC(0-t),[2]; Control,120 ng·h/mL
same,Cmax,[2]; Control,34.5 ng/mL
same,Tmax,[2]; Control,0.75 h
same,half-life,[2]; Control,7.18 h
same,permeability in Caco-2 cells versus pH,[3],gradually increases with an increase in pH
same,ED50 of inhibition of ex vivo [3H]MK-801 binding,[4],1.8 ± 1.3 mg/kg
same,Side effects / sedation,[5]; memantine 10 mg/kg intraperitoneally,No side effects; also recorded: induced no sedation; also recorded: no sedating effects
same,Side effects,[5]; memantine 30 mg/kg,slight behavioral changes
same,ED50 of t-MeHA increase,[6]; acute administration,0.3 ± 0.1 mg/kg
same,increase of tele-methylhistamine (t-MeHA) levels in the brain,[6]; acute administration,60%
same,t-MeHA levels enhanced by,[6]; two days after 5 mg/kg twice daily for 5 days,50±7%
same,Effect on number of coughs evoked by bradykinin aerosols compared to control,"[7]; FIG. 4, p<0.01",significantly reduced the number of coughs evoked by bradykinin
same,"Cumulative coughs, 0.3M bradykinin challenge",[7]; MMT 3 mg/kg i.p. 1 hour pre-bradykinin challenge,20 ± 5
same,"Cumulative coughs, 0.3M bradykinin challenge",[7]; MMT 10 mg/kg i.p. 1 hour pre-bradykinin challenge,1.3±0.8
same,"Cumulative coughs, 0.3M bradykinin challenge","[7]; MMT 10 mg/kg i.p. 1 hour pre-bradykinin challenge, listed as MMT",1.3 ± 0.8
same,"cumulative number of coughs evoked by 0.1-3 mg/mL bradykinin, median","[7]; memantine 10 mg/kg, controls 16 coughs",0.0 coughs
same,Change of breathing frequency induced by bradykinin,[8],small increase in breathing frequency
same,interaction with receptor,[9],does not interact

# Source: US8501816B2, “Antitussive compositions comprising memantine” (Cerecor, Inc., priority 2010, dated 2013)
